Assay type in all cases: biochemical
Experiment [1] has as its target recombinant human GAA (acid alpha-glucosidase) (Homo sapiens, UniProt P10253). As to the kind of experiment: Acid alpha-glucosidase (GAA) assay (4-methylumbelliferyl-alpha-D-pyranoside substrate, fluorescence). The method in brief: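 IC50 from 4-PL curve fit of percent inhibition, based on fluorescence (365/440 nm) of released methylumbelliferone relative to uninhibited enzyme. Compound dilutions and human GAA incubated 60 min, 37 °C, before 20 min substrate reaction at 37 °C, quenched at pH 10.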

For experiment [2], the target named is rat sucrase (partially purified alpha-glucosidase from intestinal rat powder) (Rattus norvegicus, UniProt P23739). The experiment is described as follows: Intestinal alpha-glucosidase assay, sucrose substrate (Glucose GO Kit). Summed up:
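Glucose release is the read-out: compounds at multiple dilutions are first held with partially purified rat intestinal alpha-glucosidase for 60 min at 37 °C, after which maltose or sucrose substrate reacts for 30 min at 37 °C before a 5 min 90 °C stop. IC50 comes from a four-parameter logistic fit.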

The target of experiment [3] is T1, recombinant alpha-glucosidase I (human full-length glucosidase I, Glu 1) (Homo sapiens, UniProt Q13724).
T1 construct: 6-His (C); made in house; host or cells: HEK-293T cells transduced with BacMam virus (virus raised in Sf9)
T1 sequence (Q13724 1-837): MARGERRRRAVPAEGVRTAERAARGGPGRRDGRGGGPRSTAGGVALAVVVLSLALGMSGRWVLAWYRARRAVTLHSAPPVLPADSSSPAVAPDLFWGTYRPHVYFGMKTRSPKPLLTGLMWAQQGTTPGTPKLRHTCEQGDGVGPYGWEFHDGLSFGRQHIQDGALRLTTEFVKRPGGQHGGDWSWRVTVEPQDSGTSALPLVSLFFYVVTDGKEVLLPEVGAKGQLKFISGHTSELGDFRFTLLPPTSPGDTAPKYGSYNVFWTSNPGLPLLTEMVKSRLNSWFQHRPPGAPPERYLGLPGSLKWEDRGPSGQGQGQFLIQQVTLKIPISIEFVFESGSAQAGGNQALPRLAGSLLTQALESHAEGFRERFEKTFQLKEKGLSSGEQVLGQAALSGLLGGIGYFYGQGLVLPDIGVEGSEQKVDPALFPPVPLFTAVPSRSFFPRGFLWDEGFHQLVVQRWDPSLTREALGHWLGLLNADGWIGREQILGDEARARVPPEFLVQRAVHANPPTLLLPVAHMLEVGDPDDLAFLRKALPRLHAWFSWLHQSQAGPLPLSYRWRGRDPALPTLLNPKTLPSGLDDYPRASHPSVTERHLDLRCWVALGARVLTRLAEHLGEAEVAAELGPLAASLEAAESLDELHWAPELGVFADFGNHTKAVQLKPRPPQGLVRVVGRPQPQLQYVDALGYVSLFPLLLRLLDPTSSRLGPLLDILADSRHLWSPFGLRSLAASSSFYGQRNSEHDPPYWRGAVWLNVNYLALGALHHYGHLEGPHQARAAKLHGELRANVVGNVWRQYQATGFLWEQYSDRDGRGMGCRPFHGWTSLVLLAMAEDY
As to the kind of experiment: Alpha-glucosidase I assay (Amplex Red glucose detection, synthetic trisaccharide substrate). Summed up:
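Compound dilution series incubated 60 min at 37° C with recombinant His-tagged human glucosidase I ([…]), after which trisaccharide substrate analog was added for 90 min at 37° C. Reaction quenched with 1.5M Tris pH 8; D-glucose detected by Amplex Red fluorescence, 560/590 nm. 4-PL curve fit of percent inhibition gave IC50.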

Setting [4] is: Glucosidase 1, read-out: Glu 1 IC50.

Each structure is given as a SMILES string. Like-named read-outs stand apart in the source and are kept apart here.

rat sucrase (partially purified alpha-glucosidase from intestinal rat powder), sequence (P23739 whole entry): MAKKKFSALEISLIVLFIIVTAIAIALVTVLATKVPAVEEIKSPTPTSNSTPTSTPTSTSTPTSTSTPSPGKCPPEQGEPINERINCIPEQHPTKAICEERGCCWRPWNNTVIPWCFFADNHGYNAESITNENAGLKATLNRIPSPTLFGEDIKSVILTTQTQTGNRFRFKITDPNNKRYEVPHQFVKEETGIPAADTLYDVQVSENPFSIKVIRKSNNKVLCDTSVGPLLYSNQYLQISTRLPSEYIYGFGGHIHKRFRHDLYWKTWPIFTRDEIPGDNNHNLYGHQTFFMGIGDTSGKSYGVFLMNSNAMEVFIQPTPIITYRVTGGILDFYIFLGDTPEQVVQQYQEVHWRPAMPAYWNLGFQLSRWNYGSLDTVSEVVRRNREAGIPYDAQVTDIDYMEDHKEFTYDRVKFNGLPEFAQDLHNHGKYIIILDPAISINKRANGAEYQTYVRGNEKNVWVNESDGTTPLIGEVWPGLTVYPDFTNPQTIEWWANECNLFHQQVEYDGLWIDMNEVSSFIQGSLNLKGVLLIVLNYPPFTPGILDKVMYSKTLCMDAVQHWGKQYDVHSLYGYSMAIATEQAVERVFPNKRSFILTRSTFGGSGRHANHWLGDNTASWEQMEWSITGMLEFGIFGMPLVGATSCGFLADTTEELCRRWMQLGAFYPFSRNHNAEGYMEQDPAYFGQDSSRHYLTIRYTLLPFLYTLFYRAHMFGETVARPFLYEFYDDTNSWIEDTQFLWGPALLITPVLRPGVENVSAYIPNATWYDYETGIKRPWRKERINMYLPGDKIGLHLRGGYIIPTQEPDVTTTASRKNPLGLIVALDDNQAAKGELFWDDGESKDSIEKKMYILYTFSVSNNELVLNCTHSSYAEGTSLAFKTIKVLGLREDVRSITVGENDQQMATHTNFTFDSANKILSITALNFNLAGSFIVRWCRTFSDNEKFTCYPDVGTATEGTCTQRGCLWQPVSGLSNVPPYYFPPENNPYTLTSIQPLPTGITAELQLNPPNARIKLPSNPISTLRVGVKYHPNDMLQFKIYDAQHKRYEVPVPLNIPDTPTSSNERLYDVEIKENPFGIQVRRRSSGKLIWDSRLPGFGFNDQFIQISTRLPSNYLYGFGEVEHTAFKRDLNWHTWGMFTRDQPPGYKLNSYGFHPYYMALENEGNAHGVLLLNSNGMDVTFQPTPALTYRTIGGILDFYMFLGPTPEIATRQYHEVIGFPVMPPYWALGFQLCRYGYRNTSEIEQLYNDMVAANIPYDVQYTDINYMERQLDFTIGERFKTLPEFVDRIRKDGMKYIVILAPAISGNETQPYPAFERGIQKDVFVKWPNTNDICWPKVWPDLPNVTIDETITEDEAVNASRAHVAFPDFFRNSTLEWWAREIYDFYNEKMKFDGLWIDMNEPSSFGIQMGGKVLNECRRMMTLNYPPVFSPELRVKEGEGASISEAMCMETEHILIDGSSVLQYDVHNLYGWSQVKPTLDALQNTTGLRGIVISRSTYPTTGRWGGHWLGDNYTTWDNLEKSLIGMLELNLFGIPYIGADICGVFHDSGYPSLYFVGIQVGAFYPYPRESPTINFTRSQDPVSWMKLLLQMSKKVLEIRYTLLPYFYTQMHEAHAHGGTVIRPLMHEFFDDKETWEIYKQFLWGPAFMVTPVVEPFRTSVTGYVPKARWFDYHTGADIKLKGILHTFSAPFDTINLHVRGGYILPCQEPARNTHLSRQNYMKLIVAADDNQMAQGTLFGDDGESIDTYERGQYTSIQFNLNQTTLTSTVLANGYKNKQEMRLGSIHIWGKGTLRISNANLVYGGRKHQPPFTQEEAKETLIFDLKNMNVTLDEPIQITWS

As to `OC[C@@H]1[C@@H](O)[C@H](O)[C@@H](O)CN1CCCCCCNc1ccc(-c2cccnn2)cc1Cl` [Compound 1202, (2R,3R,4R,5S)-1-(6-{[2-chloro-4-(pyridazin-3-yl)phenyl]amino}hexyl)-2-(hydroxymethyl)piperidine-3,4,5-triol], the IC50 (usually the point on the concentration scale where inhibition reaches its midpoint) in experiment [1] was 39 nM; in experiment [2], less than 1 nM; in experiment [3] (setting [4]), less than 1 nM.

Consider `O=[N+]([O-])c1cc(N2CCOCC2)ccc1NCc1cccc(CN2C[C@H](O)[C@@H](O)[C@H](O)[C@H]2CO)c1` [Compound 1067, (2R,3R,4R,5S)-2-(hydroxymethyl)-1-{[3-({[4-(morpholin-4-yl)-2-nitrophenyl]amino}methyl)phenyl]methyl}piperidine-3,4,5-triol], for which the IC50 in experiment [1] turned out to be 426 nM; in experiment [2], 80 nM; in experiment [3], 99 nM.

For the molecule `[N-]=[N+]=Nc1ccc(NCCc2ccc(CCN3C[C@H](O)[C@@H](O)[C@H](O)[C@H]3CO)c3c2OCCO3)c([N+](=O)[O-])c1` [Compound 1173, (2R,3R,4R,5S)-1-[2-(8-{2-[(4-azido-2-nitrophenyl)amino]ethyl}-2,3-dihydro-1,4-benzodioxin-5-yl)ethyl]-2-(hydroxymethyl)piperidine-3,4,5-triol], the results for the IC50 in experiment [1], in experiment [2] and in experiment [3] (setting [4]) were 1800 nM, 456 nM and 157 nM, respectively.

In the case of `OC[C@@H]1[C@@H](O)[C@H](O)[C@@H](O)CN1CCCCCCNc1cc(-c2ncccn2)cc(C(F)(F)F)c1` [Compound 1131, (2R,3R,4R,5S)-2-(hydroxymethyl)-1-(6-{[3-(pyrimidin-2-yl)-5-(trifluoromethyl)phenyl]amino}hexyl)piperidine-3,4,5-triol], the IC50 came to 25 nM in experiment [1], 40 nM in experiment [2] and 232 nM in experiment [3] (setting [4]).

Consider `O=Cc1cc(NCCCCCCN2C[C@H](O)[C@@H](O)[C@H](O)[C@H]2CO)cc(-c2ncccn2)c1` [Compound 1129, 3-(pyrimidin-2-yl)-5-({6-[(2R,3R,4R,5S)-3,4,5-trihydroxy-2-(hydroxymethyl)piperidin-1-yl]hexyl}amino)benzaldehyde], for which the IC50 worked out at 28 nM in experiment [1], 56 nM in experiment [2] and 148 nM in experiment [3] (setting [4]).

For `[N-]=[N+]=Nc1ccc(NCC/C=C/CCN2C[C@H](O)[C@@H](O)[C@H](O)[C@H]2CO)c([N+](=O)[O-])c1` [Compound 1260, (2R,3R,4R,5S)-1-[(3E)-6-[(4-azido-2-nitrophenyl)amino]hex-3-en-1-yl]-2-(hydroxymethyl)piperidine-3,4,5-triol], the IC50 came to 44 nM in experiment [1], 29 nM in experiment [2] and 136 nM in experiment [3].

Consider `OC[C@@H]1[C@@H](O)[C@H](O)[C@@H](O)CN1CCCCCCNc1cc(-c2cccnn2)cc(C2CC2)c1` [Compound 1008, (2R,3R,4R,5S)-1-(6-{[3-cyclopropyl-5-(pyridazin-3-yl)phenyl]amino}hexyl)-2-(hydroxymethyl)piperidine-3,4,5-triol], for which the IC50 in experiment [1] turned out to be 64 nM; in experiment [2], 78 nM; in experiment [3] it was 103 nM.

For `N#Cc1cc(Cl)cc(NCCc2ccc(CCN3C[C@H](O)[C@@H](O)[C@H](O)[C@H]3CO)cc2)c1` [Compound 1134, 3-chloro-5-{[2-(4-{2-[(2R,3R,4R,5S)-3,4,5-trihydroxy-2-(hydroxymethyl)piperidin-1-yl]ethyl}phenyl)ethyl]amino}benzonitrile], the results for the IC50 in experiment [1], in experiment [2] and in experiment [3] (setting [4]) were 167 nM, 259 nM and 640 nM, respectively.

For `CS(=O)(=O)c1cc(NCc2cccc(CN3C[C@H](O)[C@@H](O)[C@H](O)[C@H]3CO)c2)cc(-c2ncccn2)c1` [Compound 1041, (2R,3R,4R,5S)-2-(hydroxymethyl)-1-{[3-({[3-methanesulfonyl-5-(pyrimidin-2-yl)phenyl]amino}methyl)phenyl]methyl}piperidine-3,4,5-triol], the values for the IC50 in experiment [1], in experiment [2] and in experiment [3] were 1880 nM, 187 nM and 17 nM, respectively.

`CN(C)C(=O)c1cc(NCCCCCCN2C[C@H](O)[C@@H](O)[C@H](O)[C@H]2CO)cc(-c2ncccn2)c1` [Compound 1126, N,N-dimethyl-3-(pyrimidin-2-yl)-5-({6-[(2R,3R,4R,5S)-3,4,5-trihydroxy-2-(hydroxymethyl)piperidin-1-yl]hexyl}amino)benzamide]: the IC50 in experiment [1] was 86 nM; in experiment [2] it was 13500 nM; in experiment [3] (setting [4]), 550 nM.

Take `OC[C@@H]1[C@@H](O)[C@H](O)[C@@H](O)CN1Cc1ccc(CNc2cc(-c3cccnn3)cc(C3CC3)c2)cc1` [Compound 1012, (2R,3R,4R,5S)-1-{[4-({[3-cyclopropyl-5-(pyridazin-3-yl)phenyl]amino}methyl)phenyl]methyl}-2-(hydroxymethyl)piperidine-3,4,5-triol]: the values for the IC50 in experiment [1], in experiment [2] and in experiment [3] (setting [4]) were 350 nM, 33 nM and 18 nM, respectively.

In the case of `[N-]=[N+]=Nc1ccc(NCCc2cnn(CCN3C[C@H](O)[C@@H](O)[C@H](O)[C@H]3CO)c2)c([N+](=O)[O-])c1` [Compound 1191, (2R,3R,4R,5S)-1-[2-(4-{2-[(4-azido-2-nitrophenyl)amino]ethyl}-1H-pyrazol-1-yl)ethyl]-2-(hydroxymethyl)piperidine-3,4,5-triol], the IC50 in experiment [1] stood at 2740 nM; in experiment [2] it was 2010 nM; in experiment [3] (setting [4]) it was 7550 nM.

As for `OC[C@@H]1[C@@H](O)[C@H](O)[C@@H](O)CN1CCCCCCNc1cc(-c2ncccn2)cc(C2CC2)c1` [Compound 1009, (2R,3R,4R,5S)-1-(6-{[3-cyclopropyl-5-(pyrimidin-2-yl)phenyl]amino}hexyl)-2-(hydroxymethyl)piperidine-3,4,5-triol], the values for the IC50 in experiment [1], in experiment [2] and in experiment [3] (setting [4]) were 62 nM, 71 nM and 163 nM, respectively.

As to `OC[C@@H]1[C@@H](O)[C@H](O)[C@@H](O)CN1Cc1ccc(CNc2cc(-c3ncccn3)cc(C3CC3)c2)cc1` [Compound 1013, (2R,3R,4R,5S)-1-{[4-({[3-cyclopropyl-5-(pyrimidin-2-yl)phenyl]amino}methyl)phenyl]methyl}-2-(hydroxymethyl)piperidine-3,4,5-triol], the IC50 in experiment [1] was determined as 254 nM; in experiment [2] it was 26 nM; in experiment [3] (setting [4]), 53 nM.

Turning to `COc1cc(Cc2ccccc2)cc(NCCCCCCN2C[C@H](O)[C@@H](O)[C@H](O)[C@H]2CO)c1` [Compound 1145, (2R,3R,4R,5S)-1-{6-[(3-benzyl-5-methoxyphenyl)amino]hexyl}-2-(hydroxymethyl)piperidine-3,4,5-triol], the results for the IC50 in experiment [1], in experiment [2] and in experiment [3] (setting [4]) were 60 nM, 3 nM and 283 nM, respectively.

Consider `OC[C@@H]1[C@@H](O)[C@H](O)[C@@H](O)CN1Cc1ccc(CNc2cc(C3CC3)cc(N3CCOCC3)c2)cc1` [Compound 1010, (2R,3R,4R,5S)-1-{[4-({[3-cyclopropyl-5-(morpholin-4-yl)phenyl]amino}methyl)phenyl]methyl}-2-(hydroxymethyl)piperidine-3,4,5-triol], for which the IC50 in experiment [1] was found to be 359 nM; in experiment [2], 96 nM; in experiment [3] (setting [4]), 199 nM.

`COC(OC)c1cc(NCCCCCCN2C[C@H](O)[C@@H](O)[C@H](O)[C@H]2CO)cc(-c2ncccn2)c1` [Compound 1124, (2R,3R,4R,5S)-1-(6-{[3-(dimethoxymethyl)-5-(pyrimidin-2-yl)phenyl]amino}hexyl)-2-(hydroxymethyl)piperidine-3,4,5-triol]: the IC50 in experiment [1] amounted to 36 nM; in experiment [2], 147 nM; in experiment [3] (setting [4]) it was 513 nM.

On to `Cc1cc(NCc2cccc(CN3C[C@H](O)[C@@H](O)[C@H](O)[C@H]3CO)n2)cc(-c2ccc[nH]2)c1` [Compound 1335, (2R,3R,4R,5S)-2-(hydroxymethyl)-1-{[6-({[3-methyl-5-(1H-pyrrol-2-yl)phenyl]amino}methyl)pyridin-2-yl]methyl}piperidine-3,4,5-triol], for which the IC50 in experiment [1] came out at 470 nM; in experiment [2], 321 nM; in experiment [3], 966 nM.

For the origin of these results see patent US20250197372A1 (priority 2020, published 2025).
